# Test results as given in patent publication US7592308B2, “F3W variants of the lantibiotic mersacidin and its use” (priority 2004, dated 2009).
# Read-outs that look alike come from different tables or passages of the source. Square brackets hold non-standard residues; d marks the D form. Ends that are not written are not given here. Dha = C=C(N)C(=O)O
# Key:
# E. faecalis 29212 = test: MIC, two-fold serial dilution in broth; assay type: cell-based, Enterococcus faecalis; details: Table 8A; MHB + 50 μg/ml calcium; duplicate
# Description: (§1) A selection of the variants produced in Example 1 above were tested further for activity against a range of bacteria. Minimum inhibitory concentrations (MICs) for all organisms with the exception of Streptococcus pneumoniae were determined by two-fold serial antibiotic dilutions in Mueller-Hinton broth (MHB) supplemented with 50 μg/ml calcium as calcium chloride dihydrate. Minimum inhibitory concentrations (MICs) for S. pneumoniae were determined by two-fold serial antibiotic dilutions in Brain Heart Infusion (BHI) broth supplemented with 50 μg/ml calcium as calcium chloride dihydrate. Antimicrobial agent stock solutions were prepared and stored according to NCCLS standard M7-A6.
# (§2) Actively growing broth cultures were diluted to contain […] by adjusting to an absorbance of 0.2-0.3 at 600 nm, equivalent to the McFarland 0.5 standard. They were then diluted a further 1:100 in broth. The assays were performed in duplicate in sterile 96-well microtitre plates in a total volume of 200 μl (160 μl broth, 20 μl antibiotic, 20 μl inoculum) in a concentration range from 64 μg/ml to 0.06 μg/ml. The 12th well of the microtitre plate contained no antimicrobial agent. Vancomycin was used as a reference antibiotic for quality control. Plates were incubated aerobically, shaking, for 18-20 hours at 37° C. with the MIC defined as the lowest concentration of drug that produced no visible growth.
# E. faecium 19579 = test: MIC, two-fold serial dilution in broth; assay type: cell-based, Enterococcus faecium; details: Table 8A; MHB + 50 μg/ml calcium; duplicate
# Description: as §1, §2
# E. faecium 7131121 = test: MIC, two-fold serial dilution in broth; assay type: cell-based, Enterococcus faecium; details: Table 8A; MHB + 50 μg/ml calcium; duplicate
# Description: as §1, §2
# S. pneumoniae R6 = assay type: cell-based, Streptococcus pneumoniae; details: Table 8B; BHI broth + 50 μg/ml calcium; duplicate
# Description: as §1, §2
# S. epidermidis 11047 = assay type: cell-based, Staphylococcus epidermidis; details: Table 8B; MHB + 50 μg/ml calcium; duplicate
# Description: as §1, §2
# S. aureus SH1000 = assay type: cell-based, Staphylococcus aureus; details: Table 8A; MHB + 50 μg/ml calcium; duplicate
# Description: as §1, §2
# S. aureus R33 = assay type: cell-based, Staphylococcus aureus; details: Table 8A; MHB + 50 μg/ml calcium; duplicate
# Description: as §1, §2
# S. aureus CS = assay type: cell-based, Staphylococcus aureus
# Description: (§3) MIC tests were performed with some of the variants of Example 2 on a range of other organisms. The results are shown in Tables 9 and 10 (figures in μg/ml): […]
# S. aureus 1012-13 MRSA = assay type: cell-based, Staphylococcus aureus
# Description: as §3
# S. aureus COL MRSA = assay type: cell-based, Staphylococcus aureus
# Description: as §3
# S. aureus SG511 = assay type: cell-based, Staphylococcus aureus
# Description: as §3
# S. pyogenes 16205 = assay type: cell-based, Streptococcus pyogenes
# Description: as §3
# S. pyogenes 13608 = assay type: cell-based, Streptococcus pyogenes
# Description: as §3
# E. faecium 4147 VRE = assay type: cell-based, Enterococcus faecium
# Description: as §3
# E. faecium 4147-1 = assay type: cell-based, Enterococcus faecium
# Description: as §3
# [1] = test system: Micrococcus luteus ATCC4698; test: Bioassay of culture supernatant against M. luteus; assay type: cell-based; details: aqueous phase of chloroform-extracted culture supernatant
# Description: The cultures were assayed for production of mersacidin by HPLC and bioassay against Micrococcus luteus ATCC4698. Samples of production cultures (1 ml) were centrifuged at 14000 rpm for 10 minutes. Supernatants were decanted and used undiluted for HPLC and bioassay.
# For bioassays, M.luteus was inoculated from frozen stock into 10 ml half-strength Muller-Hinton broth in a 50 ml conical flask, and incubated at 30C with shaking at 250 rpm for approximately 7 hours, 0.3 ml of this culture was used to inoculate 300 ml of Muller-Hinton agar which was poured into a bioassay plate. Wells (6 mm diameter) were made with a cork-borer. Samples of 50 μl of supernatants were added to these wells. The concentration of mersacidin in the samples was calculated by comparing the diameter of inhibition zones of samples against a range of concentrations of a pure mersacidin standard.
# Chloramphenicol resistant colonies were selected and grown in 3 ml Tryptic Soy Broth at 30C for 24 hours, 250 rpm and 0.3 ml of these cultures were used to inoculate 7 ml of 2×BPM+300 mM glucose+chloramphenicol (20 mg/l). After five days of incubation at 30C and 250 rpm, a 1 ml sample was collected and centrifuged at 13000 rpm for 10 min, the supernatant was removed, extracted with 1 volume of chloroform and the aqueous phase used for bioassay and HPLC-MS analysis (see accompanying disclosure for method). […] These masses are consistent with production of the expected mature lantibiotic products.
# The ligation mixture was used to transform E. coli DH10B (Invitrogen). Ampicillin resistant colonies were selected, grown in LB+ampicillin (100 mg/l) and plasmids were isolated and characterised by sequence analysis. Plasmid encoding the expected mutant (pNB2024) was used to transform E. coli ET12567 and the plasmid obtained from this strains was used to transform Bacillus sp. HIL Y-85,54728 E17A. Chloramphenicol resistant colonies were selected and grown in 3 ml Tryptic Soy Broth at 30C for 24 hours, 250 rpm and 0.3 ml of these cultures were used to inoculate 7 ml of 2×BPM+300 mM glucose+chloramphenicol (20 mg/l). […]
# M. luteus 4698 = assay type: cell-based, Micrococcus luteus
# Description: as §1, §2
# S. aureus COL = assay type: cell-based, Staphylococcus aureus
# Description: as §3
# E. faecium BM4147 = test: MIC test, further organisms; assay type: cell-based, Enterococcus faecium; details: Table 10; duplicate
# Description: as §3
# S. aureus Mu50 = test: MIC test, further organisms; assay type: cell-based, Staphylococcus aureus; details: Table 10; duplicate
# Description: as §3
# S. aureus LT 1012-13 = test: MIC test, further organisms; assay type: cell-based, Staphylococcus aureus; details: Table 10; duplicate
# Description: as §3
Compound,MIC E. faecalis 29212 (E. faecalis 29212),MIC E. faecium 19579 (E. faecium 19579),MIC S. pneumoniae R6 (S. pneumoniae R6),MIC S. aureus SH1000 (S. aureus SH1000),MIC S. aureus CS (S. aureus CS) [µg/mL],MIC S. aureus 1012-13 MRSA (S. aureus 1012-13 MRSA) [µg/mL],MIC S. aureus COL MRSA (S. aureus COL MRSA) [µg/mL],MIC S. aureus SG511 (S. aureus SG511) [µg/mL],MIC S. pyogenes 16205 (S. pyogenes 16205) [µg/mL],MIC S. pyogenes 13608 (S. pyogenes 13608) [µg/mL],antibiotic activity in bioassay against M. luteus [1],MIC M. luteus 4698 (M. luteus 4698; 4698) [µg/mL],MIC E. faecium BM4147 (E. faecium BM4147),MIC S. aureus Mu50 (S. aureus Mu50),MIC S. aureus LT 1012-13 (S. aureus LT 1012-13),other results
"G9S: mersacidin variant (CTFTLPGGSGVCTLT[Dha]ECIC; thioether (positions not given here); not fully specified; UniProt P43683 49-68, looked up, variant G9S)",">64, >64 μg/ml",">64, >64 μg/ml",">64, >64 μg/ml",">64, >64 μg/ml",–,–,–,–,–,–,–,–,–,–,–,"MIC E. faecium 7131121 (E. faecium 7131121): >64, >64 μg/ml; MIC S. epidermidis 11047 (S. epidermidis 11047): >64, >64 μg/ml; MIC S. aureus R33 (S. aureus R33): >64, >64 μg/ml"
"C=C1NC(=O)C2NC(=O)[C@H](CC(C)C)NC(=O)C(NC(=O)[C@@H]3CSC(C)C(NC(=O)[C@H](Cc4ccccc4)NC(=O)C4NC(=O)[C@@H](N)CSC4C)C(=O)N[C@@H](CC(C)C)C(=O)N4CCC[C@H]4C(=O)NCC(=O)N[C@@H](C)C(=O)NCC(=O)NCC(=O)N[C@@H](C(C)C)C(=O)N3)C(C)SC[C@H](NC(=O)[C@H](CCC(=O)O)NC1=O)C(=O)N[C@@H]([C@@H](C)CC)C(=O)NC=CSC2C (stereo partly shown) [G8A, mersacidin G8A]",–,–,–,–,8,16,32,8,1,1,has antibiotic activity,4,–,–,–,"MIC E. faecium 4147 VRE (E. faecium 4147 VRE; Table 9, 16 h): 64-16 h, μg/ml; MIC E. faecium 4147 VRE (E. faecium 4147 VRE; Table 9, 24 h): 128-24 h μg/ml; MIC E. faecium 4147-1 (E. faecium 4147-1; 4147-1): 128 µg/mL"
"G8N: mersacidin variant (CTFTLPGNGGVCTLT[Dha]ECIC; thioether (positions not given here); not fully specified; UniProt P43683 49-68, looked up, variant G8N)",">64, >64 μg/ml",">64, >64 μg/ml",">64, >64 μg/ml",">64, >64 μg/ml",–,–,–,–,–,–,–,–,">64, >64 μg/ml",">64, >64 μg/ml",">64, >64 μg/ml","MIC S. aureus COL (S. aureus COL; Table 10, duplicate): >64, >64 μg/ml"
"C=C1NC(=O)C2NC(=O)[C@H](CC(C)C)NC(=O)C(NC(=O)[C@@H]3CSC(C)C(NC(=O)[C@H](Cc4c[nH]c5ccccc45)NC(=O)C4NC(=O)[C@@H](N)CSC4C)C(=O)N[C@@H](CC(C)C)C(=O)N4CCC[C@H]4C(=O)NCC(=O)NCC(=O)NCC(=O)NCC(=O)N[C@@H](C(C)C)C(=O)N3)C(C)SC[C@H](NC(=O)[C@H](CCC(=O)O)NC1=O)C(=O)N[C@@H]([C@@H](C)CC)C(=O)NC=CSC2C (stereo partly shown) [F3W, mersacidin F3W]",–,–,–,–,4,4,16,2,0.125,0.125,antibiotic activity comparable to mersacidin,0.5,–,–,–,"MIC E. faecium 4147 VRE (E. faecium 4147 VRE; 4147 VRE): 32 µg/mL; MIC E. faecium 4147-1 (E. faecium 4147-1; Table 9, 16 h): 32-16 h, μg/ml; MIC E. faecium 4147-1 (E. faecium 4147-1; Table 9, 23 h): 64-23 h μg/ml"
C=C1NC(=O)C2NC(=O)[C@H](CC(C)C)NC(=O)C(NC(=O)[C@@H]3CSC(C)C(NC(=O)[C@H](Cc4ccccc4)NC(=O)C4NC(=O)[C@@H](N)CSC4C)C(=O)N[C@@H](CC(C)C)C(=O)N4CCC[C@H]4C(=O)NCC(=O)NCC(=O)N[C@@H](C)C(=O)NCC(=O)N[C@@H](C(C)C)C(=O)N3)C(C)SC[C@H](NC(=O)[C@H](CCC(=O)O)NC1=O)C(=O)N[C@@H]([C@@H](C)CC)C(=O)NC=CSC2C (stereo partly shown) [G9A],">64, >64 μg/ml",–,–,–,–,–,–,–,–,–,–,–,">64, >64 μg/ml",">64, >64 μg/ml",">64, >64 μg/ml","MIC S. aureus COL (S. aureus COL; COL): 64, >64 μg/ml; MIC M. luteus 4698 (M. luteus 4698; Table 8B, MHB + 50 μg/ml calcium, duplicate): <4, <4 μg/ml"
